The source of these data is publication PMC10600239, “Selective MCL-1 inhibitor ABBV-467 is efficacious in tumor models but is associated with cardiac troponin increases in patients” (Communications Medicine, 2023).

The data set relates to OCI-AML2 xenografts. The experiment in a line: OCI-AML2 xenograft efficacy (tumor volume, body weight). Particulars: for Tumor Volume Day 14, Mean / Tumor Volume Day 14, Median / % T/C (mean), Tumor Volume Day 14 / % T/C (median), Tumor Volume Day 14: Day 14 (measure date = dosing begin); for Tumor Volume Day 14, Mean / Tumor Volume Day 18, Mean / Tumor Volume Day 21, Mean: group mean of 8 mice; for Tumor Volume Day 14, Median / Tumor Volume Day 18, Median / Tumor Volume Day 21, Median: group median of 8 mice; for % T/C (mean), Tumor Volume Day 14 / % T/C (median), Tumor Volume Day 14 / % T/C (mean), Tumor Volume Day 18 / % T/C (median), Tumor Volume Day 18 / % T/C (mean), Tumor Volume Day 21 / % T/C (median), Tumor Volume Day 21: control Group 01; for % T/C (mean), Tumor Volume Day 25: mean(T)/mean(C) vs Group 01 (0 mg/kg); for % T/C (median), Tumor Volume Day 25: median(T)/median(C) vs Group 01 (0 mg/kg); for % Mortality: OCI-AML-2 (DSMZ) xenograft, SCID-beige mouse, F.

[1] abbreviates: ABBV-467 […] Q7Dx3 IV, Venetoclax 25 mg/kg QDx14 PO, 5-Aza 8 mg/kg Q7Dx3 IV.
Setting [2] is: Venetoclax 25 mg/kg QDx14 PO, 5-Aza 8 mg/kg Q7Dx3 IV.
The mark [3] stands for this setting: group mean, n=8, ABBV-467 […] Q7Dx3 IV, Venetoclax 25 mg/kg QDx14 PO, 5-Aza 8 mg/kg Q7Dx3 IV.
The mark [4] stands for this setting: group median, n=8, ABBV-467 […] Q7Dx3 IV, Venetoclax 25 mg/kg QDx14 PO, 5-Aza 8 mg/kg Q7Dx3 IV.

Description: All animal studies were conducted in accordance with the guidelines approved by the Institutional Animal Care and Use Committees of AbbVie. The research protocol was approved by In Vivo Pharmacology at AbbVie prior to study initiation but was not publicly registered or disclosed. Female C.B-17 SCID-beige mice (AMO-1, OPM-2, NCI-H929, and OCI-AML2 xenografts) and female NSG mice (MV4-11-Red.Fluc systemic) were purchased from Charles River Laboratories (Wilmington, MA). Animals were housed in a light cycle-controlled room with HEPA filtration at 22 °C. Animals had nesting and climbing cage topper as the primary environmental enrichment. Animals were inoculated subcutaneously in the right flank with 5 × 10^6 (AMO-1, OPM-2, NCI-H929, and OCI-AML2) or intravenous (IV) with 5 × 10^6 (MV4-11-Red.Fluc). The inoculation volume (0.2 mL) comprised a 50:50 mixture of cells in growth media and Matrigel (BD Biosciences) for subcutaneous injections and 100% phosphate-buffered saline for IV administration. […] Electronic calipers were used to measure the length and width of each tumor 2 to 3 times per week. Tumor volume was estimated by applying the following equation: volume = length × width^2/2. All groups remained blinded during measurements and dosing; only veterinary staff were aware of group identity. When tumors reached approximately 200 mm^3, mice were randomized by match and distributed into treatment and control groups. All xenograft trials were conducted using 5 to 10 mice per group, and all mice were ear tagged and monitored individually throughout the studies.
For combination studies, all compounds were administered within 30 min of each other.
The tumor growth delay (TGD) percentage was determined as the percentage increase of the median time period for the treatment group to reach an arbitrary tumor volume of 1000 mm^3 relative to the vehicle control group. […] A power analysis was conducted using historical data to determine the number of animals required to yield significance of 0.05 at a 30% difference. There were no animals excluded. Data from experiments in vivo were analyzed using the student’s t-test for TGI values and the Mann–Whitney U test for TGD using Excel and GraphPad Prism. Fisher’s exact test was used to probe significance of differences in response frequency.

Regarding `Nc1ncn([C@@H]2O[C@H](CO)[C@@H](O)[C@H]2O)c(=O)n1` [5-azacitidine, reference compound], where the note is “venetoclax 25 mg/kg QD × 14, azacitidine 8 mg/kg Q7D × 3, or the combination of both”, the “effect on OCI-AML2 xenograft growth” value is “no meaningful effect”.

For the compound `Nc1ncn([C@@H]2O[C@H](CO)[C@@H](O)[C@H]2O)c(=O)n1` [A-37426.0 (5-Aza)], under setting [1], the “Tumor Volume Day 14, Mean” value turned out to be 204.71 mm³; the “Tumor Volume Day 14, Median” value came out at 196.98 mm³; the “% T/C (mean), Tumor Volume Day 14” value is listed as 99.83%; the “% T/C (median), Tumor Volume Day 14” value came to 103.17%. Moreover, under setting [1], the “Tumor Volume Day 18, Mean” value came out at 420.77 mm³; the “Tumor Volume Day 18, Median” value was 428.51 mm³; the “% T/C (mean), Tumor Volume Day 18” value turned out to be 80.49%; the “% T/C (median), Tumor Volume Day 18” value is recorded as 74.19%. Besides, under setting [1], the “Tumor Volume Day 21, Mean” value worked out at 806.97 mm³; the “Tumor Volume Day 21, Median” value turned out to be 777.56 mm³; the “% T/C (mean), Tumor Volume Day 21” value is reported as 88.35%; the “% T/C (median), Tumor Volume Day 21” value was 78.44%. Further, under setting [1], the “% T/C (mean), Tumor Volume Day 25” value was found to be 76.12% and the “% T/C (median), Tumor Volume Day 25” value is on record as 72.28%. The “Mortality Observation Day 25 (individual animals)” value under setting [2] is “EUTV”. Besides, the “Tumor Volume (mm³) Day 25, Mean” value under setting [3] turned out to be 1474.66 mm³. For the same compound, under setting [4], the “Tumor Volume (mm³) Day 25, Median” value worked out at 1414.73 mm³. Moreover, the “% Mortality” value (Group 04, 8 mg/kg IV Q7Dx3) is 100.00%.

Take `CC1(C)CCC(CN2CCN(c3ccc(C(=O)NS(=O)(=O)c4ccc(NCC5CCOCC5)c([N+](=O)[O-])c4)c(Oc4cnc5[nH]ccc5c4)c3)CC2)=C(c2ccc(Cl)cc2)C1` [A-1195425.0 (Venetoclax)]: under setting [1], the “Tumor Volume Day 14, Mean” value came out at 204.64 mm³; the “Tumor Volume Day 14, Median” value was determined as 193.77 mm³; the “% T/C (mean), Tumor Volume Day 14” value worked out at 99.79%; the “% T/C (median), Tumor Volume Day 14” value stood at 101.49%. Under setting [1], the “Tumor Volume Day 18, Mean” value came out at 437.16 mm³; the “Tumor Volume Day 18, Median” value stood at 415.67 mm³; the “% T/C (mean), Tumor Volume Day 18” value stood at 83.63%; the “% T/C (median), Tumor Volume Day 18” value turned out to be 71.96%. Under setting [1], the “Tumor Volume Day 21, Mean” value amounted to 934.07 mm³; the “Tumor Volume Day 21, Median” value is given as 1005.20 mm³; the “% T/C (mean), Tumor Volume Day 21” value was determined as 102.27%; the “% T/C (median), Tumor Volume Day 21” value is given as 101.40%. Moreover, under setting [1], the “% T/C (mean), Tumor Volume Day 25” value was found to be 83.87% and the “% T/C (median), Tumor Volume Day 25” value came out at 91.03%. Also, the “Mortality Observation Day 25 (individual animals)” value under setting [2] is “EUTV”. The “Tumor Volume (mm³) Day 25, Mean” value under setting [3] was found to be 1624.63 mm³. The “Tumor Volume (mm³) Day 25, Median” value under setting [4] is listed as 1781.81 mm³. In addition, where the note is “Group 03, 25 mg/kg PO QDx14”, the “% Mortality” value worked out at 100.00%.

With `Cc1c(Cl)c2c(Cl)c(C)c1-c1c(-c3ccc(F)cc3)sc3ncnc(c13)O[C@@H](C(=O)O)Cc1cc(ccc1OCc1ccnc(-c3ccc(OC[C@H]4COCCO4)cc3)n1)OC[C@@H](CN1CCN(C)CC1)O2` [A-1747745.0 (ABBV-467, MCL-1i)], under setting [1], the “Tumor Volume Day 14, Mean” value amounted to 205.07 mm³; the “Tumor Volume Day 14, Median” value amounted to 194.10 mm³; the “% T/C (mean), Tumor Volume Day 14” value is 100.01%; the “% T/C (median), Tumor Volume Day 14” value stood at 101.66%. Under setting [1], the “Tumor Volume Day 18, Mean” value was determined as 319.69 mm³; the “Tumor Volume Day 18, Median” value was found to be 302.00 mm³; the “% T/C (mean), Tumor Volume Day 18” value stood at 61.16%; the “% T/C (median), Tumor Volume Day 18” value is given as 52.29%. Besides, under setting [1], the “Tumor Volume Day 21, Mean” value stood at 701.23 mm³; the “Tumor Volume Day 21, Median” value is recorded as 681.22 mm³; the “% T/C (mean), Tumor Volume Day 21” value is given as 76.77%; the “% T/C (median), Tumor Volume Day 21” value is on record as 68.72%. In addition, under setting [1], the “% T/C (mean), Tumor Volume Day 25” value was 50.53% and the “% T/C (median), Tumor Volume Day 25” value was determined as 52.40%. In addition, under setting [3], the “Tumor Volume (mm³) Day 25, Mean” value came to 978.87 mm³. Moreover, under setting [4], the “Tumor Volume (mm³) Day 25, Median” value is 1025.66 mm³. Under “Day 28, ABBV-467 […] Q7Dx3 IV, Venetoclax 25 mg/kg QDx14 PO, 5-Aza 8 mg/kg Q7Dx3 IV”, the “Mortality Observation Day 28 (individual animals)” value is on record as “EUTV”. Further, the “Tumor Volume (mm³) Day 28, Mean” value (Day 28, group mean, n=8, ABBV-467 […] Q7Dx3 IV, Venetoclax 25 mg/kg QDx14 PO, 5-Aza 8 mg/kg Q7Dx3 IV) stood at 1642.98 mm³. Besides, the “Tumor Volume (mm³) Day 28, Median” value (Day 28, group median, n=8, ABBV-467 […] Q7Dx3 IV, Venetoclax 25 mg/kg QDx14 PO, 5-Aza 8 mg/kg Q7Dx3 IV) stood at 1495.57 mm³.
